We go through 13 molecules from ChEMBL document CHEMBL1201862, “PubChem BioAssay data set” (2004).

Among the test systems are TK-10; IGROV-1; NCI-H460; HOP-62; MOLT-4; U-251; LXFL 529; LOX IMVI; SW-620; SR; KM12; UO-31; M14; 786-0; SN12C; RPMI-8226; PC-3; MDA-MB-435; BT-549.
Common to all, as to experiment: NCI anticancer screen, dose series, 48 h

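Results reflect a 48-hour exposure of cells in 96-well plates to compound at five concentrations. GI50 = concentration required for 50% inhibition of growth.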 Activity calls are given as the source filed them. Cut-off read from the data, not from the text of the source: active = GI50 up to about 1.1 µM and inactive = higher. Where only a bound is given, the exact number is not on record here.

On to `CCN(CC)CCNC(=O)c1ccc([N+](=O)[O-])cc1OC`, for which the GI50 in the experiment with TK-10, in the experiment with IGROV-1, with NCI-H460, with HOP-62, in the experiment on MOLT-4 and with U-251 was > 100 µM (inactive) throughout. Moreover, the GI50 in the experiment on LXFL 529, in the experiment with LOX IMVI, with SW-620, in the experiment with SR, in the experiment on KM12 and in the experiment with UO-31 was > 100 µM (inactive) throughout. In addition, the GI50 with M14, in the experiment with 786-0 and in the experiment on SN12C was > 100 µM (inactive) each time.

As to `COc1ccc(CC#N)c(OCc2ccccc2)c1`, the GI50 is 29.4 µM (inactive) in the experiment on IGROV-1; 61 µM (inactive) in the experiment with NCI-H460; 43.3 µM (inactive) with RPMI-8226; > 100 µM (inactive) in the experiment on HOP-62; 30.3 µM (inactive) in the experiment with MOLT-4; 20.2 µM (inactive) in the experiment with LXFL 529. Moreover, the GI50 is 43.8 µM (inactive) in the experiment with LOX IMVI; 31 µM (inactive) with SW-620; 33.4 µM (inactive) in the experiment with SR; 61.5 µM (inactive) with KM12; 42.2 µM (inactive) in the experiment on UO-31; 35.6 µM (inactive) in the experiment with M14. Besides, the GI50 is > 100 µM (inactive) in the experiment with 786-0 and 51.5 µM (inactive) in the experiment with SN12C.

With `ClC(Cl)[Si]12OCCN(CCO1)CCO2`, the GI50 with TK-10, in the experiment on IGROV-1, with NCI-H460, in the experiment with RPMI-8226, in the experiment on MOLT-4 and in the experiment with U-251 was > 100 µM (inactive) in each case. Moreover, the GI50 with LXFL 529, in the experiment with SW-620, in the experiment with SR, in the experiment on KM12, in the experiment with UO-31 and in the experiment on 786-0 was > 100 µM (inactive) in each case. Further, in the experiment with SN12C, the GI50 was > 100 µM (inactive).

As to `O=C1/C(=C\c2ccccc2)CN(C(=O)CCN2CCCCC2)C/C1=C/c1ccccc1`, the GI50 was 3.93 µM (inactive) with TK-10; 1.95 µM (inactive) in the experiment with IGROV-1; 2.35 µM (inactive) in the experiment with NCI-H460; 1.24 µM (inactive) in the experiment on PC-3; 0.0832 µM (active) with RPMI-8226; 12.9 µM (inactive) in the experiment with HOP-62. Moreover, the GI50 in the experiment on MOLT-4 was 0.231 µM (active); in the experiment with U-251 it was 0.632 µM (active); in the experiment on LXFL 529 it was 1.32 µM (inactive); with LOX IMVI it was 0.283 µM (active); in the experiment on MDA-MB-435, 2.05 µM (inactive); with SW-620, 0.167 µM (active). The GI50 with SR is 0.315 µM (active); in the experiment with KM12, 0.379 µM (active); with BT-549, 0.553 µM (active); in the experiment on UO-31, 1.91 µM (inactive); in the experiment on M14 it was 1.7 µM (inactive); with 786-0, 1.3 µM (inactive). In addition, in the experiment with SN12C, the GI50 is 0.966 µM (active).

As to `C[C@H](OCc1ccccc1)C(=O)N1CCS(=O)(=O)N2CCC[C@@H]2C1=O`, the GI50 with TK-10, in the experiment on IGROV-1, in the experiment with NCI-H460, with RPMI-8226, in the experiment with HOP-62 and with MOLT-4 was > 100 µM (inactive) in each case. Moreover, the GI50 in the experiment with U-251, in the experiment with LXFL 529, in the experiment with LOX IMVI, in the experiment on SW-620, in the experiment with SR and with KM12 was > 100 µM (inactive) in each case. Besides, the GI50 in the experiment with UO-31, with M14, with 786-0 and in the experiment with SN12C was > 100 µM (inactive) throughout.

As for `CC(=O)C1=CCC2c3[nH]c4ccccc4c3CCN2C1` (stereo not drawn), the GI50 with TK-10 was > 100 µM (inactive); in the experiment with IGROV-1, 61.1 µM (inactive); in the experiment with NCI-H460 it was 45 µM (inactive); in the experiment with HOP-62, > 100 µM (inactive); in the experiment with MOLT-4, 42.1 µM (inactive); in the experiment with U-251, 54.5 µM (inactive). Moreover, the GI50 in the experiment on LXFL 529 was 66.8 µM (inactive); in the experiment on LOX IMVI it was 58.7 µM (inactive); with SW-620, > 100 µM (inactive); with SR it was 31.8 µM (inactive); with KM12, 52.6 µM (inactive); with UO-31, > 100 µM (inactive). Also, the GI50 with M14 is > 100 µM (inactive); in the experiment with 786-0, 35.1 µM (inactive); in the experiment with SN12C, 68.4 µM (inactive).

For `C(=N\CC/N=C/c1cccc2ccccc12)/c1cccc2ccccc12`, the GI50 in the experiment with TK-10, in the experiment with IGROV-1, in the experiment on NCI-H460, in the experiment on RPMI-8226, with MOLT-4 and with U-251 was > 100 µM (inactive) in each case. The GI50 with LXFL 529, in the experiment on SW-620, in the experiment on SR, in the experiment on KM12, in the experiment on UO-31 and in the experiment with 786-0 was > 100 µM (inactive) throughout. Also, the GI50 with SN12C was > 100 µM (inactive).

As to `O=C(c1ccco1)N(C(=S)N1CCN(c2ccccn2)CC1)c1ccccc1`, the GI50 in the experiment on TK-10, with IGROV-1, in the experiment on NCI-H460, in the experiment on RPMI-8226, in the experiment on HOP-62 and in the experiment on MOLT-4 was > 100 µM (inactive) in each case. For the same molecule, the GI50 in the experiment on U-251, with LXFL 529, in the experiment on LOX IMVI, with SW-620, in the experiment with SR and in the experiment with KM12 was > 100 µM (inactive) in each case. The GI50 was 88.7 µM (inactive) in the experiment on UO-31, > 100 µM (inactive) in the experiment with M14, > 100 µM (inactive) in the experiment on 786-0 and > 100 µM (inactive) in the experiment on SN12C.

As to `Cc1ccc(NC(=O)C(=O)CC(=O)c2c(C)[n+]([O-])c3ccccc3[n+]2[O-])cc1C`, the GI50 in the experiment on TK-10 was > 100 µM (inactive); in the experiment with IGROV-1 it was > 100 µM (inactive); in the experiment on NCI-H460, 83 µM (inactive); in the experiment on RPMI-8226 it was > 100 µM (inactive); in the experiment with HOP-62, > 100 µM (inactive); in the experiment on U-251, > 100 µM (inactive). Moreover, the GI50 is > 100 µM (inactive) in the experiment with LXFL 529; > 100 µM (inactive) with LOX IMVI; 49.4 µM (inactive) with SW-620; 33.5 µM (inactive) in the experiment with SR; > 100 µM (inactive) in the experiment with KM12; > 100 µM (inactive) with UO-31. Further, the GI50 in the experiment on M14 is 74.8 µM (inactive); in the experiment with 786-0, > 100 µM (inactive); with SN12C it was > 100 µM (inactive).

As for `COc1c(OC(C)=O)ccc(/C=C2\N=C(C)OC2=O)c1[N+](=O)[O-]`, the GI50 in the experiment on TK-10, with IGROV-1, with NCI-H460, with RPMI-8226, in the experiment with HOP-62 and with MOLT-4 was > 100 µM (inactive) throughout. Moreover, the GI50 in the experiment on U-251, in the experiment on LXFL 529, in the experiment with LOX IMVI, in the experiment with SW-620, in the experiment on SR and with KM12 was > 100 µM (inactive) throughout. Besides, the GI50 in the experiment with UO-31, with M14, with 786-0 and with SN12C was > 100 µM (inactive) each time.

As for `Cc1cc2ncn(-c3nc4ccccc4nc3C(C#N)S(C)(=O)=O)c2cc1C` (stereo not drawn), the GI50 in the experiment on TK-10, in the experiment on IGROV-1, with NCI-H460, in the experiment on RPMI-8226, with HOP-62 and in the experiment on MOLT-4 was > 100 µM (inactive) throughout. In addition, the GI50 with U-251, with LXFL 529, in the experiment on LOX IMVI, in the experiment with SW-620, in the experiment on SR and with KM12 was > 100 µM (inactive) each time. Further, the GI50 in the experiment on UO-31, in the experiment on M14, in the experiment with 786-0 and in the experiment on SN12C was > 100 µM (inactive) in each case.

With `COc1ccc(NC(=O)/C(Cc2cc(=O)oc3cc(O)ccc23)=N\NC(C)(C)C)c(OC)c1`, the GI50 with TK-10, with IGROV-1, with NCI-H460, in the experiment with RPMI-8226, in the experiment with HOP-62 and with MOLT-4 was > 100 µM (inactive) throughout. Moreover, the GI50 with U-251, in the experiment on LXFL 529, in the experiment on LOX IMVI, with SW-620, with SR and in the experiment with KM12 was > 100 µM (inactive) throughout. Also, the GI50 in the experiment on UO-31, with M14, in the experiment on 786-0 and in the experiment on SN12C was > 100 µM (inactive) throughout.

With `CCN(CC)CCCCC1CCN(CC(=O)N2c3cc(Cl)ccc3NC(=O)CC2C)CC1` (stereo not drawn), the GI50 in the experiment with IGROV-1, in the experiment on NCI-H460, in the experiment on RPMI-8226, in the experiment with HOP-62, in the experiment with MOLT-4 and in the experiment with U-251 was > 100 µM (inactive) in each case. The GI50 was > 100 µM (inactive) in the experiment on LXFL 529; > 100 µM (inactive) in the experiment with LOX IMVI; > 100 µM (inactive) in the experiment with SW-620; 74 µM (inactive) in the experiment on SR; > 100 µM (inactive) in the experiment with UO-31; > 100 µM (inactive) in the experiment with M14. For the same molecule, the GI50 in the experiment on 786-0 and in the experiment on SN12C was > 100 µM (inactive) in each case.
